{
  "source": "paper PMC4309848",
  "about": "“The role of the catecholic and the electrophilic moieties of caffeic acid in Nrf2/Keap1 pathway activation in ovarian carcinoma cell lines” (Redox Biology, 2014)",
  "key": {"[1]": {"biological_target": "glutathione-S-transferase (GST, GSTP1)", "assay": "in vitro enzyme activity assay (GSH/CDNB conjugation, absorbance at […] nm)", "format": "biochemical"}, "[2]": {"biological_target": "glutathione reductase-1 (GSR, GSR1)", "assay": "in vitro enzyme activity assay (GSSG/NADPH, absorbance at […] nm)", "format": "biochemical"}},
  "data": [
    {"smiles": "O=C(O)/C=C/c1ccc(O)c(O)c1", "note": "[CA, caffeic acid]", "values": [
      {"measurement": "IC50", "setting": "[1]", "result": 95, "unit": "µM"},
      {"measurement": "IC50", "setting": "[2]", "result": 70, "unit": "µM"}
    ]}
  ]
}
